From US6841552B1, “3a,4,5,9b-tetrahydro-1H-benz[e]indol-2-yl amine-derived neuropeptide Y receptors ligands useful in the treatment of obesity and other disorders” (Ortho-McNeil Pharmaceutical, Inc., priority 1999, dated 2005)

Legend:
[1] = target: T1, human neuropeptide Y5 receptor (Homo sapiens, UniProt Q15761); experiment: NPY5 HTS centrifugation assay: competition with 125I-PYY for binding to membranes of NPY5-transfected HEK293 cells; conditions: for % Inh @ 300 nM / inhibition at 0.3 µM: % inhibition of 125I-PYY binding at 300 nM compound; for % Inh @ 3 uM / inhibition at 3 µM: % inhibition of 125I-PYY binding at 3 uM compound; for inhibition at 0.3 µM: read-out: % Inh @ 300 nM
T1 construct: expressed in transfected cells; membranes
T1 sequence (Q15761 1-445): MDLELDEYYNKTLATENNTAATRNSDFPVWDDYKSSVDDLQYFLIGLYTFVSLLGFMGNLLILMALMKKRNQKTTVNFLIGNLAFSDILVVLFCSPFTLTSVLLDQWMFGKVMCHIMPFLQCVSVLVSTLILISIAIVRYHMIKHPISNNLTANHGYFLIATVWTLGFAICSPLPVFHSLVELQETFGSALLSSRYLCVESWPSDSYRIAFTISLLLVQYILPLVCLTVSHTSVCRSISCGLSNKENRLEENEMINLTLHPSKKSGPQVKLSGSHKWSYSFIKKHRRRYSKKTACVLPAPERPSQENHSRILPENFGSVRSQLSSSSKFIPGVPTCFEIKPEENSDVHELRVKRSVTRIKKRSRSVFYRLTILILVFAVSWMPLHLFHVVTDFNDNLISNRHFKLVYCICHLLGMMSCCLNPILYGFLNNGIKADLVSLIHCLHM
Experimental: NPY5 HTS Centrifugation Assay
The compounds described in this invention were evaluated for binding to the human neuropeptide Y5 receptor.
The human NPY5 receptor cDNA (Genbank Accession number U66275) was inserted into the vector pClneo (Invitrogen) and transfected into human embryonic kidney cells (HEK-293) via calcium phosphate method (Cullen 1987). Stably transfected cells were selected with G-418 (600 μg/mL). Stably transfected cells served as the source for the membranes for the NPY5 receptor binding assay.
NPY5-transfected HEK293 cells were grown to confluence in 150 cm^2 culture dishes. Cells were washed once with phosphate-buffered saline (Gibco Cat# 14040-133). Cells were then incubated in phosphate-buffered saline without calcium and without magnesium, supplemented with 2 mM EDTA. Cells were incubated for 10 minutes at room temperature and the cells were collected by repetitive pipeting. Cells were formed into pellets and then frozen at −80° C. until needed. Frozen pellets were homogenized with a polytron at full speed for 12 seconds in a homogenization buffer (20 mM Tris HCl, 5 mM EDTA, pH 7.4). Homogenates were centrifuged for 5 minutes at 4° C. at 200 g. Supernatants were transferred to corex tubes and centrifuged for 25 minutes at 28,000 g. Pellets were re-suspended in Binding (20 mM HEPES, 10 mM NaCl, 0.22 mM KH2PO4, 1.3 mM CaCl2, 0.8 mM MgSO4, pH 7.4). Membranes were kept on ice until use.
A competition binding assay, known to those skilled in the art, was used in which compounds of formula A compete with ^125I-PYY for binding to cell membranes. In simple terms, the less ^125I-PYY bound to the membranes implies that a compound is a good inhibitor (competitor). Bound ^125I-PYY is determined by centrifugation of membranes, aspirating supernatant, washing away residual ^125I-PYY and subsequently counting the bound sample in a gcounter.
Compounds to be tested were prepared as 10× stocks in binding buffer and added first to assay tubes (RIA vials, Sarstedt). Twenty (20) μL of each 10× compound stock is pipeted into vials and 80 μL of ^125I-PYY (NEN catalog number NEX240), which has been diluted to a concentration of 200 pM in 0.25% BSA in binding buffer, is added to the compound tubes (final concentration of ^125I-PYY is 80 pM). To each tube is added 100 μL of membranes and the mixture is agitated by pipeting 2 times. Samples are incubated for 1 hr at room temperature. Aluminum cast plates (Sarstedt) containing the vials are then centrifuged 10 minutes at 3200 rpm in a Sorvall RT6000. Supernatant is then aspirated. To each vial 400 μL PBS is added and this is then aspirated again. Vials are then put in carrier polypropylene 12×75 tube and counted in gamma counter (Packard). Non-specific binding is determined in the presence of 300 nM NPY. Percent inhibition of ^125I-PYY binding is calculated by subtracting non-specific binding from the test samples (compound (I)), taking these counts and dividing by total binding, and multiplying by 100. Inhibitory concentration values (IC50) of compounds that show appreciable inhibition of ^125I-PYY binding are calculated by obtaining percent inhibition of ^125I-PYY binding values at different concentrations of the test compound, and using a graphing program such as GraphPad Prism (San Diego, Calif.) to calculate the concentration of test compound that inhibits fifty-percent of ^125I-PYY binding (Table 4).

[2] = tested on: Food-Deprived Rats; experiment: Rodent feeding model: measurement of food intake in food-deprived rats; type: in vivo, Male Long-Evans rats; conditions: 10 mg/kg i.p.
Source text: Measurement of Food Intake in Food-Deprived Rats
Male Long-Evans rats (180-200 grams) are housed individually and are maintained on once-a-day feeding schedule (i.e., 10 a.m. until 4 p.m.) for five days following quarantine to allow the animals to acclimate to feeding on powdered chow (#5002 PMI Certified Rodent Meal) during the allotted time. The chow is made available in a open jar, anchored in the cage by a wire, with a metal follower covering the food to minimize spillage. Water is available ad-libitum.
Animals are fasted for 18 hours prior to testing. At the end of the fasting period, animal are administered either compounds of the invention or vehicle. Vehicle and test compounds are administered either orally (5 mL/kg) 60 minutes prior to the experiment, or 30 minutes prior when given subcutaneously (1 mL/kg) or intraperitoneally (1 mL/kg). Compounds of the invention are administered orally as a suspension in aqueous 0.5% methylcellulose-0.4% Tween 80, or intraperitoneally as a solution or suspension in PEG 200; compound concentrations typically range from 1 mg/kg to 100 mg/kg, preferably from 10-30 mg/kg. Food intake is measured at 2, 4, and 6 hours after administration by weighing the special jar containing the food before the experiment and at the specified times. Upon completion of the experiment, all animals are given a one-week washout period before retesting.
Percent reduction of food consumption is calculated subtracting the grams of food consumed by the treated group from the grams of food consumed by the control group divided by the grams of food consumed by the control group, multiplied by 100. A negative value indicates a reduction in food consumption and a positive value indicates an increase in food consumption. [formula]

SMILES | inhibition at 0.3 µM [1] | inhibition at 3 µM [1] | also measured
COc1ccc2c(c1)CC[C@@H]1N=C(NC(=O)[C@H]3CC[C@H](CNS(=O)(=O)c4ccccc4)CC3)C[C@H]21 (relative stereo) [Compound 7, trans-4-[[(Phenylsulfonyl)amino]methyl]-N-(cis-3a,4,5,9b-tetrahydro-7-methoxy-1H-benz[e]indol-2-yl)cyclohexanecarboxamide] |  |  | % Inh @ 300 nM ([1]; 0.3 µM): 82%; % Inh @ 3 uM ([1]; 3 µM): 98%
O=C(NC1=N[C@H]2CCc3cc(O)ccc3[C@H]2C1)[C@H]1CC[C@H](CNS(=O)(=O)c2ccccc2)CC1 (relative stereo) [Compound 9, trans-4-[[(Phenylsulfonyl)amino]methyl]-N-(cis-3a,4,5,9b-tetrahydro-7-hydroxy-1H-benz[e]indol-2-yl)cyclohexanecarboxamide] | 97% | 97% | 
O=S(=O)(NC[C@H]1CC[C@H](CNC2=N[C@H]3CCc4cc(Cl)ccc4[C@H]3C2)CC1)c1ccccc1 (relative stereo) [Compound 18, N-[[trans-4-[[(cis-3a,4,5,9b-tetrahydro-7-chloro-1H-benz[e]indol-2-yl)amino]methyl]cyclohexyl]methyl]benzenesulfonamide] | 90% | 109% | 
O=C(NC1=N[C@H]2CCc3cc(Cl)ccc3[C@H]2C1)[C@H]1CC[C@H](CNS(=O)(=O)c2ccccc2)CC1 (relative stereo) [Compound 17, trans-4-[[(Phenylsulfonyl)amino]methyl]-N-(cis-3a,4,5,9b-tetrahydro-7chloro-1H-benz[e]indol-2-yl)cyclohexanecarboxamide] | 86% | 107% | 
COc1ccc2c(c1)CCC1N=C(NCCN3CCC(n4c(=O)[nH]c5ccccc54)CC3)CC21 (stereo not drawn) [Compound 12] |  |  | % Inh @ 300 nM [1]: 9%; % Inh @ 3 uM [1]: 53%
COc1ccc2c(c1)CC[C@@H]1N=C(NC[C@H]3CC[C@H](CNS(=O)(=O)c4ccccc4)CC3)C[C@H]21 (relative stereo) [Compound 8, N-[[trans-4-[[(cis-3a,4,5,9b-tetrahydro-7-methoxy-1H-benz[e]indol-2-yl)amino]methyl]cyclohexyl]methyl]benzenesulfonamide] | 85% | 98% | Food Consumption (avg. grams) 0-2 h ([2]; 0-2 h, 18 h fasted rats): 4.38 g; Food Consumption 0-2 h (% chg.) ([2]; 0-2 h, change vs vehicle, negative = reduction): (−52%); Food Consumption (avg. grams) 0-4 h ([2]; 0-4 h, 18 h fasted rats): 7.88 g; Food Consumption 0-4 h (% chg.) ([2]; 0-4 h, change vs vehicle, negative = reduction): (−38%); Food Consumption (avg. grams) 0-6 h ([2]; 0-6 h, 18 h fasted rats): 12.00 g; Food Consumption 0-6 h (% chg.) ([2]; 0-6 h, change vs vehicle, negative = reduction): (−43%); Food Consumption (avg. grams) 2-6 h ([2]; 2-6 h, 18 h fasted rats): 7.63 g; Food Consumption 2-6 h (% chg.) ([2]; 2-6 h, change vs vehicle, negative = reduction): (−37%)
NC1(C(=O)CN2CCC(n3c(=O)[nH]c4ccccc43)CC2)CC2c3ccc(O)cc3CCC2N1 (stereo not drawn) [Compound 21, 2-[[4-(2,3-Dihydro-2-oxo-1H-benzimidazol-1-yl)-1-piperidinyl]acetyl]-[3a,4,5,9b-tetrahydro-7-hydroxy-1H-benzo[e]indol-2-yl]-amine] | 20% | 78% | 
O=S(=O)(NC[C@H]1CC[C@H](CNC2=N[C@H]3CCc4ccccc4[C@H]3C2)CC1)c1ccccc1 (relative stereo) [Compound 14, N-[[trans-4-[[(cis-3a,4,5,9b-tetrahydro-1 H-benz[e]indol-2-yl)amino]methyl]cyclohexyl]methyl]benzenesulfonamide] | 89% | 93% | 
COc1ccc2c(c1)CC[C@@H]1N=C(NC(=O)[C@H]3CC[C@H](CNS(=O)(=O)c4ccccc4)CC3)C[C@H]21 (relative stereo) [Compound 19, trans-4-[[(Phenylsulfonyl)amino]methyl]-N-(cis-3a,4,5,9b-tetrahydro-7-methoxy-1H-benz[e]indol-2-yl)cyclohexanecarboxamide] | 80% | 99% | 
COc1ccc2c(c1)CCC1NC(N)(C(=O)CN3CCC(n4c(=O)[nH]c5ccccc54)CC3)CC21 (stereo not drawn) [Compound 20, 2-[[4-(2,3-Dihydro-2-oxo-1H-benzimidazol-1-yl)-1-piperidinyl]acetyl]-[3a,4,5,9b-tetrahydro-7-methoxy-1H-benzo[e]indol-2-yl]-amine] | 0% | 50% | 
O=C(NC1=N[C@H]2CCc3ccccc3[C@H]2C1)[C@H]1CC[C@H](CNS(=O)(=O)c2ccccc2)CC1 (relative stereo) [Compound 13, trans-4-[[(Phenylsulfonyl)amino]methyl]-N-(cis-3a,4,5,9b-tetrahydro-1H-benz[e]indol-2-yl)cyclohexanecarboxamide] | 80% | 100% | 
O=C(NC1=N[C@H]2CCc3cc(F)ccc3[C@H]2C1)[C@H]1CC[C@H](CNS(=O)(=O)c2ccccc2)CC1 (relative stereo) [Compound 15, trans-4-[[(Phenylsulfonyl)amino]methyl]-N-(cis-3a,4,5,9b-tetrahydro-7-fluoro-1H-benz[e]indol-2-yl)cyclohexanecarboxamide] | 89% | 100% | 
O=C(CN1CCC(n2c(=O)[nH]c3ccccc32)CC1)NC1=N[C@@H]2CCc3ccccc3[C@@H]2C1 [Compound 11] | 48% | 85% | 
O=S(=O)(NC[C@H]1CC[C@H](CNC2=N[C@H]3CCc4cc(F)ccc4[C@H]3C2)CC1)c1ccccc1 (relative stereo) [Compound 16, N-[[trans-4-[[(cis-3a,4,5,9b-tetrahydro-7-fluoro-1H-bnz[ ]indol-2-yl)amino]methyl]cyclohexyl]methyl]benzenesulfonamide] |  |  | % Inh @ 300 nM [1]: 76%; % Inh @ 3 uM [1]: 100%
